The record followed here is patent US20100298381A1, “GAMMA SECRETASE MODULATORS” (Schering Corporation, priority 2007, published 2010).

By IC50 is commonly meant the concentration that gives 50% inhibition. A low value points to higher potency.

Assay [1] has as its system Aβ42 in HEK293 cells overexpressing APP with Swedish and London mutations. Put plainly: Secretase reaction and Aβ analysis in whole cells, Aβ42 (ECL sandwich immunoassay). In kind it is cell-based. The following applies: Homo sapiens, 5 hour at 37° C. On the procedure:
(§1) Secretase Reaction and Aβ Analysis in Whole Cells: HEK293 cells overexpressing APP with Swedish and London mutations were treated with the specified compounds for 5 hour at 37° C. in […] of DMEM medium containing 10% fetal bovine serum. At the end of the incubation, total Aβ, Aβ40 and Aβ42 were measured using electrochemiluminescence (ECL) based sandwich immunoassays. Total Aβ was determined using a pair of antibodies TAG-WO2 and biotin-4G8, Aβ40 was identified with antibody pairs TAG-G2-10 and biotin-4G8, while Aβ42 was identified with TAG-G2-11 and biotin-4G8. The ECL signal was measured using Sector Imager 2400 (Meso Scale Discovery).

Assay [2] deals with total Aβ in HEK293 cells overexpressing APP with Swedish and London mutations. Put plainly: Secretase reaction and Aβ analysis in whole cells, total Aβ (ECL sandwich immunoassay). It is filed as cell-based. The following applies: Homo sapiens, 5 hour at 37° C. On the procedure:
as §1

Consider `CCCC/N=C1\N/C(=C\c2ccc(-n3cnc(C)c3)c(OC)c2)C(=O)N1[C@H](C)c1ccc(F)cc1` [Example B14], for which the IC50 in assay [1] was 46 to 94 nM; in assay [2], 778 to 20000 nM.

Take `COc1cc(/C=C2\N/C(=N\CCO)N(Cc3ccc(F)cc3)C2=O)ccc1-n1cnc(C)c1` [Example B4]: the IC50 lay within 46 to 94 nM in assay [1] and 778 to 20000 nM in assay [2].

Consider `COc1cc(/C=C2\N/C(=N\CC3CC3)N(Cc3ccc(F)cc3)C2=O)ccc1-n1cnc(C)c1` [Example B6], for which the IC50 in assay [1] lay within 46 to 94 nM; in assay [2] it was 778 to 20000 nM.

With `COc1cc(/C=C2\N/C(=N\CC(F)(F)F)N(Cc3cc(F)c(F)c(F)c3)C2=O)ccc1-n1cnc(C)c1` [Example B23], the values for the IC50 in assay [1] and in assay [2] were 46 to 94 nM and 778 to 20000 nM, respectively.

`CCCC/N=C1\N/C(=C\c2ccc(-n3cnc(C)c3)c(OC)c2)C(=O)N1C(C)c1cc(F)c(F)c(F)c1` (centres unmarked) [Example B11]: the IC50 was in the range of 46 to 94 nM in assay [1] and 778 to 20000 nM in assay [2].

Consider `COc1cc(/C=C2\N/C(=N\CCO)N(C(C)c3cc(F)c(F)c(F)c3)C2=O)ccc1-n1cnc(C)c1` (centres unmarked) [Example B10], for which the results for the IC50 in assay [1] and in assay [2] were 46 to 94 nM and 778 to 20000 nM, respectively.

Turning to `CC/N=C1\N/C(=C\c2ccc(-n3cnc(C)c3)c(OC)c2)C(=O)N1C(C)c1cc(F)c(F)c(F)c1` (centres unmarked) [Example B8], the IC50 lay within 46 to 94 nM in assay [1] and 778 to 20000 nM in assay [2].

In the case of `COc1cc(/C=C2\N/C(=N\CCO)N([C@H](C)c3ccc(F)cc3)C2=O)ccc1-n1cnc(C)c1` [Example B15], the IC50 is 46 to 94 nM in assay [1] and 778 to 20000 nM in assay [2].

Turning to `CCCC/N=C1\N/C(=C\c2ccc(-n3cnc(C)c3)c(OC)c2)C(=O)N1Cc1ccc(F)cc1` [Example B5], the IC50 in assay [1] was in the range of 46 to 94 nM; in assay [2], 778 to 20000 nM.

Take `CCCC/N=C1\N/C(=C\c2ccc(-n3cnc(C)c3)c(OC)c2)C(=O)N1Cc1cc(F)c(F)c(F)c1` [Example B22]: the values for the IC50 in assay [1] and in assay [2] were 46 to 94 nM and 778 to 20000 nM, respectively.

Regarding `CC/N=C1\N/C(=C\c2ccc(-n3cnc(C)c3)c(OC)c2)C(=O)N1Cc1cc(F)c(F)c(F)c1` [Example A9t], the values for the IC50 in assay [1] and in assay [2] were 46 to 94 nM and 778 to 20000 nM, respectively.

Regarding `COc1cc(/C=C2\NC(=N)N(C(C)c3cc(F)c(F)c(F)c3)C2=O)ccc1-n1cnc(C)c1` (centres unmarked) [Example B7], the IC50 was in the range of 46 to 94 nM in assay [1] and 778 to 20000 nM in assay [2].

`CC/N=C1\N/C(=C\c2ccc(-n3cnc(C)c3)c(OC)c2)C(=O)N1Cc1ccc(F)cc1` [Example B2]: the IC50 in assay [1] fell in the range of 46 to 94 nM; in assay [2] it was 778 to 20000 nM.

In the case of `COc1cc(/C=C2\N/C(=N\CCO)N(Cc3cc(F)c(F)c(F)c3)C2=O)ccc1-n1cnc(C)c1` [Example A9u], the IC50 lay within 46 to 94 nM in assay [1] and 778 to 20000 nM in assay [2].

As for `CC/N=C1\N/C(=C\c2ccc(-n3cnc(C)c3)c(OC)c2)C(=O)N1[C@H](C)c1ccc(F)cc1` [Example A9m], the IC50 in assay [1] lay in the range of 46 to 94 nM; in assay [2], 778 to 20000 nM.

`COc1cc(/C=C2\NC(=N)N([C@H](C)c3ccc(F)cc3)C2=O)ccc1-n1cnc(C)c1` [Example B13]: the IC50 lay within 46 to 94 nM in assay [1] and 778 to 20000 nM in assay [2].

For `COc1cc(/C=C2\N/C(=N\CC(F)(F)F)N([C@H](C)c3ccc(F)cc3)C2=O)ccc1-n1cnc(C)c1` [Example B18], the IC50 in assay [1] lay in the range of 46 to 94 nM; in assay [2], 778 to 20000 nM.

For the compound `COc1cc(/C=C2\N/C(=N\CC3CC3)N(C(C)c3cc(F)c(F)c(F)c3)C2=O)ccc1-n1cnc(C)c1` (centres unmarked) [Example B12], the IC50 in assay [1] lay in the range of 46 to 94 nM; in assay [2], 778 to 20000 nM.

Consider `COc1cc(/C=C2\N/C(=N\CC3CC3)N(Cc3cc(F)c(F)c(F)c3)C2=O)ccc1-n1cnc(C)c1` [Example A9r], for which the IC50 was 46 to 94 nM in assay [1] and 778 to 20000 nM in assay [2].
